Laboratory results published in patent US20110269226A1, “Microfluidic Continuous Flow Device for Culturing Biological Material” (priority 2008, published 2011).

How the values were obtained:
medeka fish embryo = experiment: Effect of chemical substances on fish embryo development in cultivation chamber of microfluidic continuous flow device; type: in vivo, Medaka (Oryzias latipes); settings: for death of the Medaka embryos: after 25 hours
Excerpt: A medeka fish embryo was introduced into the cultivation chamber using a pipette. The fish embryos maintain the same size until they hatch. Once all the embryos are transferred to the 8 wells of the microfluidic continuous flow device shown in FIG. 1, a coverslip is placed over the wells to seal them off.
In two different experiments EtOH (ethanol, 0-5%) and TAA ([…], 0-3%) were used as chemical substances to test the reaction of the fish embryo retained in the cultivation chamber of the microfluidic continuous flow device shown in FIG. 1. Both substances affect the liver (TAA induces lipid peroxidation which leads to liver damage). An over-dosage of both will lead to death. The flow rate in the microfluidic continuous flow device is about 1 ml/2.5 hours or 400 μl/h.

zebrafish = settings: cited from earlier work

CCO [EtOH, ethanol]
intoxication of the embryo versus concentration (medeka fish embryo; EtOH 0 to 5 v/v %, over 25 hours): The higher the concentration of the EtOH, the intoxicated the embryo is
effect on organs (medeka fish embryo; EtOH highest concentration (4.27% and 5%), 25 hours): the organs seem to be affected
organ colour change (medeka fish embryo; ethanol, the higher concentrations): the organs turned black
number of twitches (movements) of the embryo in the chamber (medeka fish embryo; rising ethanol concentration (0 to 5 v/v %)): the number of twitches rose with the ethanol concentration

CC1(C)O[C@@H]2C[C@H]3[C@@H]4CCC5=CC(=O)C=C[C@]5(C)[C@@]4(F)[C@@H](O)C[C@]3(C)[C@]2(C(=O)CO)O1 [TAA, triamcinolone acetonide]
death of the Medaka embryos (medeka fish embryo; TAA 1.5, 2 and 2.5 v/v %): died
death of the Medaka embryo (medeka fish embryo; TAA 3 v/v % (highest concentration), after 21 hours, stage 38): died and caused the death of the Medaka embryo
death of the Medaka embryos (medeka fish embryo; TAA, the 4 highest concentrations): had died

CNC(=O)Oc1cccc2ccccc12 [carbaryl]
effects observed on early development (zebrafish): Red blood cell accumulation and delayed hatching
